Results taken from patent publication US20260234188A1, “CHEMOKINE-BINDING PEPTIDES” (Oxford University Innovation Limited, priority 2022, published 2026).
Entries after “also recorded” stand apart in the source; their conditions may differ.

Experiments:
[1] = tested on: panel of 25 biotinylated chemokines (15 CC-class chemokines, 10 CXC-class chemokines); assay: Phage-display screen of HD845 NNK mutagenesis library; assay type: binding, human; conditions: for peak log 2 E: best mutation at each residue
Description: NNK mutagenesis library construction and screening was performed for the HD845 peptide using the methods described in Example 19. […] Following library selection with each chemokine, the enrichment (E) of each peptide was calculated in comparison to the input library, and expressed the enrichment as log 2 E, as this metric is correlated with binding affinity.
A two-pronged strategy was used to identify individual peptides with mutations that improve chemokine binding over the parental peptide HD845. To identify mutations that improve overall chemokine binding affinity, the best performing mutations were selected at each residue by their enhancement of mean log 2 E (FIG. 27A). To add in mutations that improve chemokine binding diversity, the best performing mutations at each residue were identified by their enhancement of peak log 2 E (FIG. 27B).

[2] = tested on: panel of 24 biotinylated chemokines; assay: Phage-display screen of HD2 NNK saturation mutagenesis library; assay type: binding, human
Excerpt: (§1) FIG. 7. Exemplar results from phage display screens using saturation mutagenesis. A phage-display library was constructed using the HD2 sequence, replacing each residue encoding codon with the degenerate sequence NNK. The 16 degenerate sequences (which also encoded the parental HD2 sequence) were pooled and cloned into display phage. […] Exemplar peptides were selected such that log 2 E for at least one chemokine was greater than 5, and log 2 E for binding to control (CO5, was less than zero). […] The fold enrichment of parental HD2 is also indicated.
as §1, with “A” for “FIG. 7. Exemplar results from phage display screens using saturation mutagenesis. A”
A molecular level understanding of binding mechanism is needed for development of peptides as therapeutics and is usually obtained from structural analyses. As HD2 binds many chemokines this becomes a challenging task, and we explored if we could elucidate this using phage display mutagenesis. The role of each residue in HD2 for binding was examined in phage-display. A library of HD2 mutations that had NNK substituted at each residue and performed phage-display selection against a panel of 24 biotinylated chemokines, in parallel, as described in Example 7. This strategy allowed us to evaluate the impact not only of Ala substitutions, but also conservative, hydrophilic and hydrophobic substitutions, and compare with binding of parental HD2 which is also included in the library. Ala substitution removes side-chains beyond the β-carbon and can be used to infer the role of side-chain functional groups without affecting conformational flexibility of the backbone. […] These residues are within the two motifs identified previously. Other notable residues identified were Y8 and P10. We next judged the impact of Ala mutation by calculating the change in log 2 E (Δlog 2 E) between the mutant and parental HD2. A positive value of Δlog 2 E indicates increased binding, and a negative value decreased binding compared to parental HD2. […] As may be seen, the log 2 E for the parental HD2 was ~0 in these analyses indicating lack of enrichment.
Oligonucleotide pools were amplified using primers: oligo_fwd: 5′-[…] and oligo_rev2: 5′-tcgtcaccctcggcgcctcctcoggatcctccacc. Oligonucleotide PCR products were cloned into plasmid prSTOP4Nsi using NEB Builder HiFi Assembly following instructions of the manufacturer. The vector pool was used to transform electrocompetent Invitrogen ElectroMAX™ DH5α-E™ cells. Plasmid DNA was harvested by MaxiPrep (GeneJet Plasmid Maxiprep Kit) and was transformed into SS320 phage display electrocompetent cells (Lucigen), following the manufacturer's protocol, resuspended in 950 μL recovery media for each electroporation, transferred to 50 mL Falcon tubes, 100 μL 1011 CFU/mL M13KO7 helper phage (NEB) added and shaken at 37° C., 220 RPM for 1 h. 1 mL recovery culture was added to 2YT medium containing +50 ug/mL carbenicillin and 25 ug/mL kanamycin, and grown overnight at 37C, 220 rpm. Phage was precipitated from the culture supernatant by adding 22.5 mL of supernatant to 4.5 mL 20% PEG 8000/2.5 M NaCl, incubating on ice for 30 min, and centrifuging at 10,000 RPM, 4° C. for 10 min, and resuspending phage in 1 ml of PBT, followed by centrifugation at 13000 RPM, 4° C., for 10 min. […]

[3] = HD2 saturation mutants, chemokines on streptavidin beads, UniProt entry names

Sequence	peak log 2 E [1]	mean log 2 E compared to parental HD845 ([1]; over CC chemokines)	mean log 2 E compared to parental HD845 ([1]; over all chemokines)	other results
EDEDYEDFFAPVTCYF [K10A]	highest peak log 2 E at that residue	significant improvement	significant improvement	
EDEDYFDFFKPVTCYF [E6F]		significant improvement		
EDEDYWDFFKPVTCYF [E6W]	highest peak log 2 E at that residue		significant improvement	mean log 2 E compared to parental HD845 ([1]; over XC chemokines): significant improvement
EEDDYTWYAPLTCYFT [A7W]				mean log 2 E compared to parental HD2 ([2]; over XC (CXC/CX3C) chemokines): significant improvement
EEEDYTAYAPLTCYFT [HD2_E3]				Chemokines Bound log2E 1-5 [2, 3]: CCL8, X3CL1; also recorded: CCL1, CCL11, CCL15, CCL17,; also recorded: CCL18, CCL22, CCL4, CCL5,; Chemokines Bound log2E > 5 [2, 3]: CCL3
